# pIC50: −log10 of the molar value. “Also recorded” adds a separate entry of the source. Read-outs that look alike come from different tables or passages of the source.
# What was measured:
# rabbit platelet = conditions: Ko et al., Thromb. Res. 57, 453-463, 1990; cited from earlier work
# [1] = system: [14C]-serotonin-loaded platelet (washed platelet); test: Inhibition of 5-[14C]-serotonin secretion from agonist-activated platelets; format: cell-based, rat
# Text: Contrary to other cells, platelets contain numerous granules such as dense granule, α-granule, lysosome and peroxisome, each of which preserves very useful physiological substances. When platelet is activated by any stimulus, substances contained in granules are secreted out of the cells through exocytosis. Particularly, dense granule contains adenine nucleotides such as adenosine diphosphate (ADP), adenosine triphosphate (ATP), etc, calcium, serotonin, etc., which are secreted upon aggregation of platelets and then cause irreversible secondary aggregation. Thus, it can be said that irreversible secondary aggregation induced by ADP, thrombin, etc. is the result of such granule secretion. […]
# The inhibitory activity of the compound of the present invention against serotonin secretion was determined using [^14 C]-serotonin-loaded platelet according to the method of Huzoor, et. al. (see, Huzoor-Akbar, Patel, S., Kokrady, S., Witiak, D. T., Newman, H. A. I. and Feller, D. R., Biochem. Pharmacol. 30, 2013-2020, 1981). […] This mixture was then centrifuged under 12,000×g at room temperature for 2 minutes to separate the supernatant from which the radioactivity of 5-[^14 C]-serotonin was measured.
# [2] = system: washed platelet (thromboxane B2 synthesis); test: Inhibition of thromboxane A2 production (thromboxane B2 by radioimmunoassay) in collagen-activated platelets; format: cell-based, rat; conditions: for Thromboxane B2: DMSO + collagen 98.44 ± 11.52, DMSO + saline 0.82 ± 0.22
# Description: The ability of producing thromboxane A2 was determined as follow according to the method described in literature [see, Ko, F. N., Sheu, S. J., Liu, Y. M., Huang, T. F., and Teng, C. M., Inhibition of rabbit platelet aggregation by 1,4-naphthoquinones, Thromb. Res. 57, 453-463, 1990]. The experiment was conducted in a plastic cuvette containing 0.5 ml of the washed platelet (3×10^8 platelet/ml) while maintaining the temperature at 37° C. First, the washed platelet was pre-treated with the compound of the present invention, NQ-Y15, for 8 minutes and then collagen was added thereto. After incubation for 5 minutes, the reaction was allowed to stop by adding 2 mM ethylenediamine tetraacetic acid and 50 μM indomethacin. This mixture was centrifuged under 12,000×g at room temperature for 2 minutes to separate the supernatant which was then stored at -20° C. Since thromboxane A2 has a unstable structure and therefore, is immediately converted into a stable thromboxane B2, the production of thromboxane B2 as an index for the thromboxane A2 production was measured by radioimmunoassay.
# washed platelet [3] = test: Inhibition of platelet aggregation induced by platelet agonists (aggregometer, light transmission, method of Born); format: cell-based, rat; conditions: for pIC50: washed platelet, 37° C., read-out: concentration by which the platelet aggregation induced by agonists is reduced by 50%
# Description: Blood was taken from abdominal aorta of rat using a syringe in which sodium citrate (final content 0.38%) was previously filled, and centrifuged under 160×g at room temperature for 15 minutes to obtain the platelet rich plasma as the supernatant. This platelet rich plasma was centrifuged again under 1500×g for 15 minutes to obtain the precipitate which was then washed three times with a washing buffer solution (129 mM sodium chloride, 0.8 mM dipotassium hydrogenphosphate, 8.9 mM sodium carbonate, 2.8 mM potassium chloride, 0.8 mM magnesium chloride, 5.6 mM glucose, 10 mM N-[2-hydroxyethyl]-piperazine-N'-[2-ethanesulfonic acid], acidity pH 7.4) containing 2 mM ethylenediamine tetraacetic acid to remove protein and calcium from the plasma. This […] was then carefully re-suspended in a modified Tyrode's buffer solution (129 mM sodium chloride, 0.8 mM dipotassium hydrogenphosphate, 8.9 mM sodium carbonate, 2.8 mM potassium chloride, 0.8 mM magnesium chloride, 5.6 mM glucose, 10 mM N-[2-hydroxyethyl]piperazine-N-'-[2-ethanesulfonic acid], acidity pH 7.4) containing 0.35% bovine serum albumin to obtain the washed platelet.
# In this experiment, the platelet aggregation ability was determined by measuring a change in light transmission depending on turbidity change by means of an apparatus for measuring platelet aggregation ability (Chronolog Co.: Pennsylvania, Harvertown) according to a method of Born (see, Born, G. V. R., Nature, 194, 927, 1962). As the control, the light transmission degree for the plasma having substantially no platelet was used. 495 μl of the platelet rich plasma prepared in the above (1) was added to a cuvette for aggregometer, which has a silicon-treated surface. This cuvette was pre-treated by inserting it into a cuvette channel which is maintained at 37° C. and retaining for 30 seconds. Then, 2.5 μl of the compound according to the present invention, NQ-Y15 (final concentration 10^-4 M), dissolved in dimethylsulfoxide was added to the cuvette. The reaction was conducted again at 37° C. for 8 minutes. Then, the change in light transmission developed by adding 2.5 μl of thrombin (final concentration 0.5U/ml) thereto was measured for 10 minutes.
# In addition, 495 μl of the washed platelet prepared in the above (1) was pre-treated for 30 seconds at 37° C. according to the same procedure as above and then 2.5 μl of the compound according to the present invention, NQ-Y15, dissolved in dimethylsulfoxide was added thereto. This mixture was allowed to react for 8 minutes at 37° C. Then, 2.5 μl of the platelet agonist (thrombin 0.1U/ml, collagen 10 μg/ml or calcium ionophore A23187 having the following formula 2 μM) was added to the reaction mixture to induce the platelet aggregation and then the change in light transmission was measured for 10 minutes. In this experiment, the light transmission degree for Tyrode's buffer solution was used as the control. [drawing 7]
# The result was determined by calculating the relative ratio of the light transmission degree obtained in each case to the light transmission degree obtained from treatment only with platelet agonists, which is regarded as 100% aggregation.
# washed platelet [4] = test: Excretion of lactic acid dehydrogenase (LDH) from platelets, cytotoxicity; format: cell-based, rat; conditions: for Concentration of LDH: NQ-Y15 0.1 mM, Triton X-100 0.1%
# Text: Lactic acid dehydrogenase (LDH) is an enzyme present in cytoplasm of platelets and is excreted from platelet cytoplasm into extracellular fluid when platelet membrane is injured or cytotoxicity such as cytolysis is induced. Accordingly, it was intended to identify whether the compound of the present invention induces the cytotoxicity by quantitatively measuring lactic acid dehydrogenase excreted after the pre-treatment with the compound of the present invention.
# To the washed platelet, dimethylsulfoxide(DMSO) (control group) which can dissolve the compound, NQ-Y15, of the present invention, NQ-Y15 or Triton X-100 (0.1%) which can disrupt the cellular membrane was added. Then, this mixture was centrifuged under 12,000×g at room temperature for 2 minutes to separate the supernatant. To the separated supernatant was added a reagent for measuring lactic acid dehydrogenase LD-L10^R (Sigma) and then the excreted lactic acid dehydrogenase was quantitatively analyzed by means of an automated clinical chemistry analyzer SBA300 (Gilford) which can automatically quantitate lactic acid dehydrogenase.
# human platelet = conditions: Blackwell et al., Thromb. Res. 37, 103-114, 1985; cited from earlier work
compound,measurement,setting,value
"CC1=C(Cl)C(=O)c2ccccc2C1=O [2-chloro-3-methyl-1,4-naphthoquinone]",inhibition of platelet aggregation in rabbit (in words),rabbit platelet,inhibits the platelet aggregation in rabbit
"N#Cc1ccc(NC2=C(Cl)C(=O)c3ccccc3C2=O)cc1 [NQ-Y15, 2-chloro-3-[(4-cyanophenyl)-amino]-1,4-naphthoquinone]",inhibition of serotonin secretion increased by collagen (in words),"[1]; collagen, within concentration range inhibiting platelet aggregation (FIG. 5)",inhibits the serotonin secretion
same,inhibition of serotonin secretion increased by thrombin (in words),"[1]; thrombin, within concentration range inhibiting platelet aggregation (FIG. 4)",inhibits the serotonin secretion increased by thrombin
same,Thromboxane B2,[2]; NQ-Y15 10 μM + collagen,78.33 ± 11.85 ng/mL
same,Thromboxane B2,[2]; NQ-Y15 30 μM + collagen,15.30 ± 2.84 ng/mL
same,Thromboxane B2,[2]; NQ-Y15 50 μM + collagen,8.50 ± 1.81 ng/mL
same,inhibition at 30 µM,"[2]; Rattus norvegicus, Platelet, 30 μM, read-out: inhibitory effect on the increase in thromboxane A2 production induced by collagen",15.5%
same,inhibition at 50 µM,"[2]; Rattus norvegicus, Platelet, 50 μM, read-out: inhibitory effect on the increase in thromboxane A2 production induced by collagen",86.3%
same,pIC50,"washed platelet [3]; Rattus norvegicus, Platelet, A23187 2 μM, 8 min pre-treatment (FIG. 3)",~4.00
same,pIC50,"washed platelet [3]; Rattus norvegicus, Platelet, collagen 10 μg/ml, 8 min pre-treatment (FIG. 2)",~5.15
same,pIC50,"washed platelet [3]; Rattus norvegicus, Platelet, thrombin 0.1U/ml, 8 min pre-treatment (FIG. 1)",~4.42
same,IC100,"washed platelet [3]; Rattus norvegicus, Platelet, agonist not stated, read-out: concentration to completely inhibit the platelet aggregation",100 µM
same,inhibition of platelet aggregation induced by platelet agonists (in words),"washed platelet [3]; thrombin, collagen and A23187, FIGS. 1 to 3",inhibits the platelet aggregation induced by platelet agonists dependent upon its concentration
same,Concentration of LDH,"washed platelet [4]; 0 min, DMSO 6.13 ± 1.13",2.87 ± 0.12 U/L
same,LDH excretion versus control group / cytotoxicity (in words),"washed platelet [4]; 0.1 mM, pre-treated for 120 minutes",does not show any significant difference from the control group; also recorded: does not cause a cytotoxicity even at high concentration
same,Concentration of LDH,"washed platelet [4]; 10 min, DMSO 5.73 ± 2.54",4.57 ± 1.05 U/L
same,Concentration of LDH,"washed platelet [4]; 20 min, DMSO 8.25 ± 1.85",5.47 ± 0.52 U/L
same,Concentration of LDH,"washed platelet [4]; 40 min, DMSO 9.77 ± 1.37",8.47 ± 0.43 U/L
same,Concentration of LDH,"washed platelet [4]; 80 min, DMSO 12.20 ± 1.74",11.55 ± 0.05 U/L
same,Concentration of LDH,"washed platelet [4]; 120 min, DMSO 14.83 ± 1.39",16.67 ± 1.24 U/L
"CC1=CC(=O)c2ccccc2C1=O [vitamin K3, menadione]",inhibition of platelet aggregation in human being (in words),human platelet,has an effect on inhibition of platelet aggregation in human being
Triton X-100 [reference compound],Concentration of LDH,"washed platelet [4]; 0 min, DMSO 6.13 ± 1.13",426.40 ± 9.64 U/L
same,Concentration of LDH,"washed platelet [4]; 10 min, DMSO 5.73 ± 2.54",443.07 ± 1.27 U/L
same,Concentration of LDH,"washed platelet [4]; 20 min, DMSO 8.25 ± 1.85",444.93 ± 4.97 U/L
same,Concentration of LDH,"washed platelet [4]; 40 min, DMSO 9.77 ± 1.37",442.20 ± 0.87 U/L
same,Concentration of LDH,"washed platelet [4]; 80 min, DMSO 12.20 ± 1.74",443.73 ± 0.37 U/L
same,Concentration of LDH,"washed platelet [4]; 120 min, DMSO 14.83 ± 1.39",443.30 ± 2.53 U/L
